In ChEMBL document CHEMBL1201862, “PubChem BioAssay data set” (2004):
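Cells were grown in 96-well plates and exposed to each compound for 48 hours at five concentrations; endpoints were interpolated linearly between bracketing concentrations, or set to the highest concentration if not reached. GI50 = concentration required for 50% inhibition of growth.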 Activity calls are given as the source filed them. No stated cut-off is given here; in the data, active = GI50 up to about 1.1 µM and inactive = higher.

Columns and labels:
Assay in all cases: inhibition of tumour cell growth, NCI panel, 48 h
TK-10 = tested on: TK-10
HCT-15 = tested on: HCT-15
MCF7 = tested on: MCF7
SR = tested on: SR
KM12 = tested on: KM12
HT-29 = tested on: HT-29
MOLT-4 = tested on: MOLT-4
ACHN = tested on: ACHN
SNB-19 = tested on: SNB-19
RXF 393 = tested on: RXF 393
NCI-H23 = tested on: NCI-H23
CCRF-CEM = tested on: CCRF-CEM
T47D = tested on: T47D
SF-295 = tested on: SF-295
BT-549 = tested on: BT-549
MDA-MB-435 = tested on: MDA-MB-435
A498 = tested on: A498
UACC-257 = tested on: UACC-257
SF-539 = tested on: SF-539
DU-145 = tested on: DU-145
NCI-H522 = tested on: NCI-H522
SK-OV-3 = tested on: SK-OV-3
OVCAR-4 = tested on: OVCAR-4
A549 = tested on: A549
U-251 = tested on: U-251
RPMI-8226 = tested on: RPMI-8226
HOP-62 = tested on: HOP-62
LOX IMVI = tested on: LOX IMVI
SK-MEL-28 = tested on: SK-MEL-28
IGROV-1 = tested on: IGROV-1
NCI-H226 = tested on: NCI-H226
SK-MEL-2 = tested on: SK-MEL-2
HL-60 = tested on: HL-60
OVCAR-5 = tested on: OVCAR-5
HCT-116 = tested on: HCT-116
PC-3 = tested on: PC-3
OVCAR-8 = tested on: OVCAR-8
HOP-92 = tested on: HOP-92
UO-31 = tested on: UO-31
EKVX = tested on: EKVX
Malme-3M = tested on: Malme-3M
Hs-578T = tested on: Hs-578T
K562 = tested on: K562
UACC-62 = tested on: UACC-62
MDA-MB-231 = tested on: MDA-MB-231
SW-620 = tested on: SW-620
M14 = tested on: M14
OVCAR-3 = tested on: OVCAR-3
COLO 205 = tested on: COLO 205
NCI/ADR-RES = tested on: NCI/ADR-RES
786-0 = tested on: 786-0
CAKI-1 = tested on: CAKI-1
MDA-N = tested on: MDA-N
NCI-H460 = tested on: NCI-H460
SF-268 = tested on: SF-268
SK-MEL-5 = tested on: SK-MEL-5
SN12C = tested on: SN12C
SNB-75 = tested on: SNB-75

Measured: GI50

CC(=O)Nc1cc(CN2CCCCC2)c(O)c2ncccc12
6.01 µM: HCT-15
inactive: TK-10 29 µM | MCF7 24.7 µM | SR 8.75 µM | KM12 23.9 µM | HT-29 44.5 µM | MOLT-4 10.1 µM | ACHN 17.8 µM | SNB-19 39.7 µM | RXF 393 4.29 µM | NCI-H23 40.7 µM | CCRF-CEM 41.5 µM | T47D 11.8 µM | SF-295 25.4 µM | BT-549 77.4 µM | MDA-MB-435 31.4 µM | A498 65.9 µM | UACC-257 24.7 µM | SF-539 58.5 µM | DU-145 6.75 µM | NCI-H522 37.3 µM | SK-OV-3 36.5 µM | OVCAR-4 35.2 µM | A549 32.9 µM | U-251 17.1 µM | RPMI-8226 12.1 µM | HOP-62 27.2 µM | LOX IMVI 20.2 µM | SK-MEL-28 27.3 µM | IGROV-1 28.4 µM | NCI-H226 31.7 µM | SK-MEL-2 4.13 µM | HL-60 14.5 µM | OVCAR-5 34.8 µM | HCT-116 20.9 µM | PC-3 21.6 µM | OVCAR-8 29.6 µM | HOP-92 49.5 µM | UO-31 7.35 µM | EKVX 30.4 µM | Malme-3M 22.9 µM | Hs-578T 67.3 µM | K562 21.3 µM | UACC-62 19.6 µM | MDA-MB-231 15.8 µM | SW-620 39.7 µM | M14 15.4 µM | OVCAR-3 25.8 µM | COLO 205 49.7 µM | NCI/ADR-RES 16.2 µM | 786-0 8.04 µM | CAKI-1 16.6 µM | MDA-N 42 µM | NCI-H460 11.7 µM | SF-268 23.7 µM | SK-MEL-5 24.3 µM | SN12C 26 µM

O=C1NC(=O)C(c2c[nH]c3cc(Br)ccc23)=C1c1cnc[nH]1
54.5 µM: HCT-15
inactive: TK-10 34.9 µM | MCF7 21.7 µM | SR 31.3 µM | KM12 21.1 µM | HT-29 26.2 µM | MOLT-4 23.9 µM | ACHN 43.7 µM | SNB-19 > 100 µM | RXF 393 39 µM | CCRF-CEM 34.8 µM | T47D 48.8 µM | SF-295 16.3 µM | BT-549 13.5 µM | MDA-MB-435 25.1 µM | A498 14.5 µM | UACC-257 16 µM | SF-539 21.9 µM | DU-145 60.5 µM | SNB-75 > 100 µM | NCI-H522 31.8 µM | SK-OV-3 13.1 µM | OVCAR-4 32.1 µM | A549 53.1 µM | U-251 32.5 µM | RPMI-8226 30.8 µM | HOP-62 19.1 µM | LOX IMVI 19.5 µM | SK-MEL-28 62.1 µM | IGROV-1 28.4 µM | NCI-H226 1.47 µM | SK-MEL-2 22.9 µM | HL-60 20.4 µM | OVCAR-5 > 100 µM | HCT-116 25.8 µM | PC-3 24.7 µM | OVCAR-8 65.2 µM | HOP-92 > 100 µM | UO-31 17.7 µM | EKVX 23.4 µM | Malme-3M > 100 µM | Hs-578T 52.7 µM | K562 25.6 µM | MDA-MB-231 27.9 µM | SW-620 55.8 µM | M14 51.6 µM | OVCAR-3 12.3 µM | COLO 205 15.6 µM | NCI/ADR-RES > 100 µM | 786-0 50 µM | CAKI-1 13.2 µM | MDA-N 35.5 µM | NCI-H460 24 µM | SF-268 29.5 µM | SK-MEL-5 11 µM | SN12C 53.3 µM

CN1C(=O)N(C)C2(CCN(CC(CC3OCCO3)c3ccc(F)cc3)CC2)C1=O (stereo not drawn)
> 100 µM: HCT-15
inactive: TK-10 > 100 µM | MCF7 > 100 µM | SR > 100 µM | HT-29 > 100 µM | MOLT-4 > 100 µM | ACHN > 100 µM | SNB-19 > 100 µM | RXF 393 > 100 µM | NCI-H23 > 100 µM | CCRF-CEM > 100 µM | T47D > 100 µM | SF-295 > 100 µM | BT-549 > 100 µM | MDA-MB-435 > 100 µM | A498 > 100 µM | UACC-257 > 100 µM | SF-539 > 100 µM | DU-145 > 100 µM | SNB-75 > 100 µM | NCI-H522 > 100 µM | SK-OV-3 > 100 µM | OVCAR-4 > 100 µM | A549 > 100 µM | U-251 > 100 µM | RPMI-8226 > 100 µM | HOP-62 > 100 µM | LOX IMVI > 100 µM | SK-MEL-28 > 100 µM | IGROV-1 > 100 µM | NCI-H226 > 100 µM | SK-MEL-2 > 100 µM | HL-60 > 100 µM | OVCAR-5 > 100 µM | HCT-116 > 100 µM | PC-3 > 100 µM | OVCAR-8 > 100 µM | HOP-92 > 100 µM | UO-31 > 100 µM | EKVX > 100 µM | Malme-3M > 100 µM | Hs-578T > 100 µM | K562 > 100 µM | UACC-62 > 100 µM | MDA-MB-231 > 100 µM | M14 > 100 µM | OVCAR-3 > 100 µM | COLO 205 > 100 µM | NCI/ADR-RES > 100 µM | 786-0 > 100 µM | CAKI-1 > 100 µM | MDA-N > 100 µM | SF-268 > 100 µM | SK-MEL-5 > 100 µM | SN12C > 100 µM
